SMILES strings stand for the structures. Several values for one entry are separate records, joined by “and”; a condition that tells them apart may be missing. Identical values can stand only once. Inconclusive results and toxic doses are left out.

We go through 19 molecules from PubChem BioAssay AID192 (DTP/NCI, 2004).

The assay deals with BDF1 mice, B16 melanoma ip, median survival T/C. Briefly: NCI In Vivo Anticancer Drug Screen. Data for tumor model B16 Melanoma (intraperitoneal) in B6D2F1 (BDF1) mice. The following applies: endpoint: median survival time, higher = longer survival. The method in brief:
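Transplantable tumor model; survival or tumor size measured; reported as T/C, treated over vehicle control.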

Setting [1] is: dose: 6.25 mg/kg/injection, schedule: Q01DX009 (ip), vehicle: saline with Tween-80.
Where [2] appears, read: dose: 12.5 mg/kg/injection, schedule: Q01DX009 (ip), vehicle: saline with Tween-80.
Where [3] appears, read: dose: 5.0 mg/kg/injection, schedule: Q01DX009 (ip), vehicle: saline.
[4] abbreviates: dose: 10.0 mg/kg/injection, schedule: Q01DX009 (ip), vehicle: saline.
Where [5] appears, read: dose: 100.0 mg/kg/injection, schedule: Q01DX009 (ip), vehicle: Klucel (hydroxypropylcellulose) (HPC).
The mark [6] stands for this setting: dose: 200.0 mg/kg/injection, schedule: Q01DX009 (ip), vehicle: Klucel (hydroxypropylcellulose) (HPC).
Where [7] appears, read: dose: 400.0 mg/kg/injection, schedule: Q01DX009 (ip), vehicle: Klucel (hydroxypropylcellulose) (HPC).
Setting [8] is: dose: 50.0 mg/kg/injection, schedule: Q01DX009 (ip), vehicle: saline with Tween-80.

Consider `CNC(=S)C(=S)NC`, for which the T/C is, setting by setting: under setting [1], 102 % of control; under setting [2], 120 % of control; (dose: 25.0 mg/kg/injection, schedule: Q01DX009 (ip), vehicle: saline with Tween-80) 107 % of control.

`O=S(c1ccccc1)c1c(Cl)c(Cl)nc(Cl)c1Cl` (stereo not drawn): the T/C (dose: 6.25 mg/kg/injection, schedule: Q01DX009 (ip), vehicle: Klucel (hydroxypropylcellulose) (HPC)) is 94 % of control and the T/C (dose: 12.5 mg/kg/injection, schedule: Q01DX009 (ip), vehicle: Klucel (hydroxypropylcellulose) (HPC)) was 100 % of control.

`O=C(NO)N/N=C/c1ccc(/C=N/NC(=O)NO)cc1`: the T/C runs as follows: (dose: 100.0 mg/kg/injection, schedule: Q04DX003 (ip), vehicle: saline with Tween-80) 100 % of control; (dose: 200.0 mg/kg/injection, schedule: Q04DX003 (ip), vehicle: saline with Tween-80) 102 % of control; (dose: 400.0 mg/kg/injection, schedule: Q04DX003 (ip), vehicle: saline with Tween-80) 90 % of control.

Consider `C=C(NC(C)=O)C(=O)CCC(N)=O`, for which the T/C runs as follows: under setting [3], 92 % of control; under setting [4], 102 % of control; (dose: 20.0 mg/kg/injection, schedule: Q01DX009 (ip), vehicle: saline) 97 % of control.

As for `CCCCCCCCCCCC(c1ccccc1)[N+](C)(C)C` (stereo not drawn), the T/C by setting is: (dose: 1.0 mg/kg/injection, schedule: Q01DX009 (ip), vehicle: saline sonified) 105 % of control; (dose: 2.0 mg/kg/injection, schedule: Q01DX009 (ip), vehicle: saline sonified) 110 % of control; (dose: 4.0 mg/kg/injection, schedule: Q01DX009 (ip), vehicle: saline sonified) 105 % of control; (dose: 8.0 mg/kg/injection, schedule: Q01DX009 (ip), vehicle: saline sonified) 100 % of control.

As for `O=[N+]([O-])O.[NH-]C1CCCCC1[NH-].[NH-]C1CCCCC1[NH-].[NH-]C1CCCCC1[NH-].[OH-].[OH-].[OH-].[Pt+4].[Pt+4].[Pt+4]` (stereo not drawn), the T/C runs as follows: (dose: 0.25 mg/kg/injection, schedule: Q01DX009 (ip), vehicle: water) 109 % of control and 119 % of control; (dose: 0.5 mg/kg/injection, schedule: Q01DX009 (ip), vehicle: water) 113 % of control and 123 % of control.

For `NC(=O)c1cc([N+](=O)[O-])c(Cl)c([N+](=O)[O-])c1Cl`, the T/C was 93 % of control (dose: 4.0 mg/kg/injection, schedule: Q01DX009 (ip), vehicle: Klucel (hydroxypropylcellulose) (HPC)) and 92 % of control (dose: 8.0 mg/kg/injection, schedule: Q01DX009 (ip), vehicle: Klucel (hydroxypropylcellulose) (HPC)).

Turning to `c1ccc2c[n+](CCCCCCCCCC[n+]3ccc4ccccc4c3)ccc2c1`, the T/C was 88 % of control (dose: 2.5 mg/kg/injection, schedule: Q01DX009 (ip), vehicle: saline); 97 % of control under setting [3]; 97 % of control under setting [4]; 92 % of control (dose: 10.0 mg/kg/injection, schedule: Q04DX003 (ip), vehicle: saline).

`OC(CCl)CN1CC[N+]2(CC1)CC[N+]1(CCN(CC(O)CCl)CC1)CC2` (stereo not drawn): the T/C was 114 % of control (dose: 4.0 mg/kg/injection, schedule: Q03HX024 (ip), vehicle: water); 114 % of control (dose: 8.0 mg/kg/injection, schedule: Q03HX016 (ip), vehicle: water); 117 % of control (dose: 8.0 mg/kg/injection, schedule: Q03HX024 (ip), vehicle: water); 116 % of control (dose: 12.5 mg/kg/injection, schedule: Q01DX009 (ip), vehicle: saline); 114 % of control (dose: 16.0 mg/kg/injection, schedule: Q01DX009 (ip), vehicle: water); 113 % of control (dose: 16.0 mg/kg/injection, schedule: Q03HX008 (ip), vehicle: water). In addition, the T/C (dose: 16.0 mg/kg/injection, schedule: Q03HX016 (ip), vehicle: water) was 121 % of control; the T/C (dose: 16.0 mg/kg/injection, schedule: Q03HX024 (ip), vehicle: water) is 121 % of control; the T/C (dose: 25.0 mg/kg/injection, schedule: Q01DX009 (ip), vehicle: saline) is 111 % of control; the T/C (dose: 32.0 mg/kg/injection, schedule: Q03HX008 (ip), vehicle: water) was 123 % of control; the T/C (dose: 44.0 mg/kg/injection, schedule: Q01DX009 (ip), vehicle: saline) was 116 % of control; the T/C (dose: 66.0 mg/kg/injection, schedule: Q01DX009 (ip), vehicle: water) is 151 % of control and 172 % of control. Also, the T/C (dose: 100.0 mg/kg/injection, schedule: Q01DX009 (ip), vehicle: water) was 150 % of control.

Turning to `CCCCC[C@H](O)/C=C/[C@@H]1[C@@H](C/C=C\CCCC(=O)O)[C@@H](O)C[C@H]1O`, the T/C (dose: 0.25 mg/kg/injection, schedule: Q#A X020 (ip), vehicle: saline with Tween-80) was 109 % of control; the T/C (dose: 1.0 mg/kg/injection, schedule: Q#A X020 (ip), vehicle: saline with Tween-80) is 100 % of control; the T/C (dose: 2.0 mg/kg/injection, schedule: Q#A X020 (ip), vehicle: saline with Tween-80) was 110 % of control; the T/C (dose: 10.0 mg/kg/injection, schedule: Q04DX002 (ip), vehicle: saline) is 113 % of control; the T/C (dose: 20.0 mg/kg/injection, schedule: Q04DX002 (ip), vehicle: saline) is 95 % of control; the T/C (dose: 40.0 mg/kg/injection, schedule: Q04DX002 (ip), vehicle: saline) was 108 % of control. Also, the T/C by setting is: (dose: 80.0 mg/kg/injection, schedule: Q04DX002 (ip), vehicle: saline) 108 % of control; (dose: 160.0 mg/kg/injection, schedule: Q04DX002 (ip), vehicle: saline) 97 % of control; (dose: 320.0 mg/kg/injection, schedule: Q04DX002 (ip), vehicle: saline) 97 % of control.

With `CCCCCCCNC(=O)Nc1cccc(Cl)c1C`, the T/C is, setting by setting: (dose: 50.0 mg/kg/injection, schedule: Q01DX009 (ip), vehicle: Klucel (hydroxypropylcellulose) (HPC)) 99 % of control; under setting [5], 90 % of control; under setting [6], 95 % of control.

Consider `Cc1cccc(C2NC(=O)c3ccccc3N2)c1` (stereo not drawn), for which the T/C by setting is: under setting [5], 109 % of control; under setting [6], 112 % of control; under setting [7], 115 % of control.

`Cn1c(O)c(C=N)c(=O)[nH]c1=O`: the T/C runs as follows: (dose: 75.0 mg/kg/injection, schedule: Q01DX009 (ip), vehicle: Klucel (hydroxypropylcellulose) (HPC)) 90 % of control; (dose: 300.0 mg/kg/injection, schedule: Q01DX009 (ip), vehicle: Klucel (hydroxypropylcellulose) (HPC)) 90 % of control.

For the molecule `O=C(/C(=N\Nc1ccc([N+](=O)[O-])cc1)c1ccccc1)c1ccccc1`, the T/C is, setting by setting: (dose: 3.13 mg/kg/injection, schedule: Q01DX009 (ip), vehicle: saline with Tween-80) 100 % of control; under setting [1], 95 % of control; under setting [2], 90 % of control and 93 % of control; under setting [8], 90 % of control.

As for `CCOC(=O)c1ccc(NS(=O)c2ccccc2)cc1` (stereo not drawn), the T/C reads like this: under setting [8], 105 % of control; (dose: 100.0 mg/kg/injection, schedule: Q01DX009 (ip), vehicle: saline with Tween-80) 91 % of control.

Turning to `Cc1cc(=O)[nH]c2ccc(-c3ccc4[nH]c(=O)cc(C)c4c3)cc12`, the T/C under setting [5] is 96 % of control and the T/C under setting [6] was 93 % of control.

As for `[N-]=[N+]=C1C(=O)NN=C1c1ccccc1`, the T/C under setting [5] was 105 % of control.

As to `COC1C(O)=C2C(=O)OC(C)(O)/C=C/C=C\C=C/C=C/C(c3ccccc3)NC(=O)/C=C/C=C/C=C/C=C/C2(C)C1O` (stereo not drawn), the T/C is 103 % of control (dose: 0.39 mg/kg/injection, schedule: Q01DX009 (ip), vehicle: Klucel (hydroxypropylcellulose) (HPC)); 104 % of control (dose: 0.78 mg/kg/injection, schedule: Q01DX009 (ip), vehicle: Klucel (hydroxypropylcellulose) (HPC)); 96 % of control (dose: 1.56 mg/kg/injection, schedule: Q01DX009 (ip), vehicle: Klucel (hydroxypropylcellulose) (HPC)); 104 % of control (dose: 1.56 mg/kg/injection, schedule: Q01DX009 (ip), vehicle: other); 106 % of control (dose: 3.12 mg/kg/injection, schedule: Q01DX009 (ip), vehicle: Klucel (hydroxypropylcellulose) (HPC)); 103 % of control (dose: 3.12 mg/kg/injection, schedule: Q01DX009 (ip), vehicle: other). Moreover, the T/C is 101 % of control (dose: 6.25 mg/kg/injection, schedule: Q01DX009 (ip), vehicle: other) and 97 % of control (dose: 12.5 mg/kg/injection, schedule: Q01DX009 (ip), vehicle: other).

With `COC(=O)CCNCc1ccccc1`, the T/C reads like this: under setting [5], 100 % of control; under setting [6], 96 % of control; under setting [7], 93 % of control.
